# Laboratory results reported in patent US20250270648A1, “MOLECULAR SIGNATURE FOR ASSESSING THE RESPONSIVENESS OF CANCER TO MITOCHONDRIA-TARGETED ANTIOXIDANTS” (UNIVERSITÉ CATHOLIQUE DE LOUVAIN, priority 2021, published 2025).
# What was measured:
# [1] = system: human MCF7 breast cancer cells; test: Cell viability, CellTiter-Glo; assay type: cell-based; settings: increasing doses of DXR ±100 nM MitoQ, 48 h
# Experimental: Cells were plated in 96-well plates and left to adhere for 16 hours. In order to avoid reaching full confluence at the endpoint, starting cell count was defined according to doubling time and the duration of the experiment. Following adhesion, cells were treated with the indicated compounds for 48 h, after which staining was done with a CellTiter-Glo Luminescent Cell Viability assay (Promega®, catalogue #G7570), according to supplier's instructions. This method is based on the quantification of intracellular ATP levels.
# [2] = system: MDA-MB-231 cells; test: Glucose consumption and lactate production, enzymatic assays on CMA600; assay type: cell-based, human; settings: 48 h
# Experimental: (§1) Glucose and lactate concentrations were measured in cell supernatants collected after 48 h of culture ±MitoQ, using specific enzymatic assays on a CMA600 analyzer (Aurora Borealis®), as previously described in Sonveaux et al. (J Clin Invest; 2008; 118, 3930-3942). All data were normalized by total protein content (Bio-Rad® Protein Assay).
# [3] = system: SkBr3 cells; test: as above; assay type: cell-based, human; settings: indicated doses of MitoQ, 48 h
# Experimental: as §1
# [4] = system: MDA-MB-231 cells; test: Clonogenic assay on soft agar; assay type: cell-based, human; settings: MitoQ 250 nM
# Experimental: (§2) For soft agar colony formation assays, 0.4% Seaplaque soft agar (Lonza®) was diluted with DMEM containing 10% FBS and was covered by a second 0.3% soft agar layer in which 500 MDA-MB-231 or SKBR3 cells were embedded. Complete DMEM Culture media ±MitoQ was added with 2× the final concentration. After 20 days, colonies were counted using an Axiovert™ 40 CFL microscope equipped with a MRC camera.
# [5] = system: SkBr3 cells; test: Clonogenic assay on soft agar; assay type: cell-based, human; settings: MitoQ 250 nM
# Experimental: as §2
# [6] = system: MDA-MB-231 and SkBr3 cells in culture; test: RT-qPCR validation of mRNA biomarkers in vitro; assay type: cell-based, human; settings: MitoQ 500 nM, 48 h
# Experimental: Total mRNA from MDA-MB-231, SkBr3 and MDA-MB-436 cells treated ±MitoQ for 48 h was extracted using the NucleoSpin RNA Kit (Macherey-Nagel®). Total mRNA from primary tumors was extracted with Tri reagent (Molecular Research Center®, Cat #TR118). mRNAs were quantified by the Qubit BR dsRNA assay kit (Thermo Fisher Scientific®), and mRNA integrity was evaluated on an Agilent® 2100 Bioanalyzer with the RNA 6000 nano kit (Agilent®). It was reverse transcribed in complementary DNA using the High-Capacity cDNA Reverse Transcription Kit (Applied Biosystems®, cat #4368814) according to manufacturer's protocol. Complementary DNA (500 ng) was amplified by real time quantitative PCR (RT-qPCR) using the low ROX SYBR Master Mix dTTP Blue (Eurogentec®) and primers listed in Table 5 and Table 6 on a ViiA 7 Real-Time PCR System (Thermo Fisher Scientific®). Gene expression was normalized to β-actin gene expression.
# While EMT and sternness markers are usual suspects when testing antimetastatic strategies, it was decided to go deeper in the understanding of the molecular effects of MitoQ, and performed unbiased RNA sequencing (RNAseq) using cells treated for 48 h±MitoQ (500 nM). […] On independent samples upon the same conditions (including |log 2 Fold Change|>1 and P<0.01), RT-qPCR on the two cell lines validated all genes as potential biomarkers of human breast cancer cell response to MitoQ, to the exception of EID1, PEG10, FTH1 and NUPR1 (FIG. 12A-M and Table 7).
# [7] = system: Human MDA-MB-231 breast cancer cells; test: Cell viability, crystal violet; assay type: cell-based; settings: increasing doses of cisplatin ±100 nM MitoQ, 48 h
# Experimental: […] The solution was carefully removed and plates were washed twice with water. After drying protected by light, cells were resuspended in 50 μl DMSO and the plates were read with a Victor X4 plate reader (Perkin®).
# [8] = system: MDA-MB-231 cells; test: Clonogenic assay, adherent; assay type: cell-based, human; settings: MitoQ 100 nM, 48 h
# Experimental: (§3) For adherent assays, MDA-MB-231 and SKBR3 cells were pre-treated for 48 h±MitoQ, and seeded (1,000 to 2,000 cells/well) in 6-well plates. After colony formation (2 weeks), cells were fixed and stained with 0.5% crystal violet in a 10% ethanol solution, for 30 min. Colonies were washed with water and counted. Results are expressed as surviving fraction (SF), where […].
# [9] = system: SkBr3 cells; test: Clonogenic assay, adherent; assay type: cell-based, human; settings: MitoQ 100 nM, 48 h
# Experimental: as §3
# [10] = system: 4T1 cells; test: Invasion, Matrigel-coated transwells; assay type: cell-based, mouse; settings: 0.1 μg/mL DXR + 100 nM MitoQ
# Experimental: Previous to migration and invasion assays, cells were pretreated with the indicated amounts of drugs for 16 h, and left to recover for 6 h in full culture medium. Migration assays were performed in a NeuroProbe® standard 48-well chemotaxis chamber according to manufacturer's instructions. Briefly, the bottom chamber was filled with DMEM containing 0.5% serum as a chemo-attractant. Fifty thousand cells were seeded in the upper chamber in the same medium but without serum ±MitoQ where indicated, and allowed to migrate overnight through an 8-μm pore-size polycarbonate membrane. A similar stimulation protocol was used for invasion assays, with the difference of using Matrigel-coated transwells (Corning®). With MCF7 cells, membranes were previously incubated for 30 min with a solution of Vitronectin 10 μg/ml (Sigma-Aldrich®, #SRP3186). Migrated/invaded cells were fixed and stained with 100 μl of a 0.23% crystal violet solution (Sigma-Aldrich®, #C0775) for 10 min before counting on a SpectraMax™ i3 spectrophotometer equipped with a MiniMax imaging cytometer, using the SoftMax Pro software. Data were normalized to vehicle-treated cells (control).
smiles,measurement,setting,value
COC1=C(OC)C(=O)C(CCCCCCCCCC[P+](c2ccccc2)(c2ccccc2)c2ccccc2)=C(C)C1=O [MitoQ],DXR-induced cell killing,[1],did not interfere
same,"glycolytic rate (glucose consumption, lactate production)",[2]; MitoQ 100 nM,increasing
same,glycolytic compensation with increasing dose,[2]; indicated doses of MitoQ,saturated
same,glycolytic compensation with increasing dose,[3],saturated
same,clonogenicity in suspension on soft agar,[4],completely abrogated
same,clonogenicity in suspension on soft agar,[5],completely abrogated
same,ASNS transcript upregulated in response to MitoQ: Validated in vitro,[6],+ (Repressed or induced by ≥2-fold with P < 0.01 in both MDA-MB-231 and SkBr3 cells in culture.)
same,G6PD transcript upregulated in response to MitoQ: Validated in vitro,[6],+ (Repressed or induced by ≥2-fold with P < 0.01 in both MDA-MB-231 and SkBr3 cells in culture.)
same,PCK2 transcript upregulated in response to MitoQ: Validated in vitro,[6],+ (Repressed or induced by ≥2-fold with P < 0.01 in both MDA-MB-231 and SkBr3 cells in culture.)
same,PHGDH-1 transcript upregulated in response to MitoQ: Validated in vitro,[6],+ (Repressed or induced by ≥2-fold with P < 0.01 in both MDA-MB-231 and SkBr3 cells in culture.)
same,PSAT1 transcript upregulated in response to MitoQ: Validated in vitro,[6],+ (Repressed or induced by ≥2-fold with P < 0.01 in both MDA-MB-231 and SkBr3 cells in culture.)
same,SERPINE1 transcript upregulated in response to MitoQ: Validated in vitro,[6],+ (Repressed or induced by ≥2-fold with P < 0.01 in both MDA-MB-231 and SkBr3 cells in culture.)
same,SLC6A9 transcript upregulated in response to MitoQ: Validated in vitro,[6],+ (Repressed or induced by ≥2-fold with P < 0.01 in both MDA-MB-231 and SkBr3 cells in culture.)
same,SLC7A11 transcript upregulated in response to MitoQ: Validated in vitro,[6],+ (Repressed or induced by ≥2-fold with P < 0.01 in both MDA-MB-231 and SkBr3 cells in culture.)
same,TXNRD1 transcript upregulated in response to MitoQ: Validated in vitro,[6],+ (Repressed or induced by ≥2-fold with P < 0.01 in both MDA-MB-231 and SkBr3 cells in culture.)
same,"cancer cell killing activity, cisplatin combined with MitoQ",[7],did not interfere
same,clonogenicity in Petri dishes allowing adhesion,[8],largely inhibited
same,clonogenicity in Petri dishes allowing adhesion,[9],largely inhibited
same,DXR-stimulated cell invasion,[10],inhibited
